Laboratory results taken from US5677146A, “Human amyloid protein precursor homolog and kunitz-type inhibitor” (Zymogenetics, Inc., priority 1995, dated 1997).

Tests used:
[1] = test system: collagenase; conditions: Wenzel and Tschesche 1981; cited from earlier work
[2] = biological target: T1, granulocyte elastase (Homo sapiens, UniProt P08246); conditions: cited from earlier work
T1 sequence (P08246 30-267): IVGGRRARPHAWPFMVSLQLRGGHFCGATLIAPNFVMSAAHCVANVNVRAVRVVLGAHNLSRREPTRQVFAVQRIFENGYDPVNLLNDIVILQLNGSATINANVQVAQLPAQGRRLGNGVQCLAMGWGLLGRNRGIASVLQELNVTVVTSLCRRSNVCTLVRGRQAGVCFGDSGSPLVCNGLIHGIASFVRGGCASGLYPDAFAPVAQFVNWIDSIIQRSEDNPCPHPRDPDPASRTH

[3] = biological target: T2, human Factor XIa (Homo sapiens, UniProt P03951); test: Protease inhibitory activity assay, Factor XIa; format: biochemical; conditions: 1 μM inhibitor; Factor XIa 1 nM; Boc-Glu(OBzl)-Ala-Arg-MCA 0.12 mM; 25° C.
T2 construct: human Factor XIa (1 nM); purchased Dr. Kazuo Fujikawa, University of Washington, Seattle, WA
Procedure: Boc--Glu(OBzl)--Ala--Arg--MCA
(§1) Inhibition assays were performed in microtiter wells in a total volume of 300 μl in 10 mM NaCl, 50 mM Tris-HCl (pH 7.4), 0.01% TWEEN80 (Polyoxyethylenesorbitan monoleate). The reactions were incubated at 25° C. for ten minutes after which the appropriate chromogenic substrate was added to the final concentration listed in Table 2 and the final reaction was incubated for thirty minutes at 25° C. Amidolytic activity was measured at 405 nm or by fluorescence Em at 460 nm.

[4] = high doses; cardiac surgery including cardiopulmonary bypass operations; cited from earlier work
[5] = biological target: T3, PL Kallikrein (plasma kallikrein) (Homo sapiens, UniProt P03952); test: Protease inhibitory activity assay, plasma kallikrein; format: biochemical; conditions: 1 μM inhibitor; PL kallikrein 3 nM; H-D-Pro-Phe-Arg-pNA 0.6 mM; 25° C.
T3 construct: purchased Kabi
Procedure: (§2) H--D--Pro--Phe--Arg--pNA
(§3) Abbreviations in Table 2: rec. refers to recombinant, GL kallikrein refer
(§4) to glandular kallikrein, and PL kallikrein refers to plasma kallikrein.
as §1

[6] = biological target: T4, human Factor Xa (Homo sapiens, UniProt P00742); test: Protease inhibitory activity assay, Factor Xa; format: biochemical; conditions: 1 μM inhibitor; Factor Xa 3 nM; MeO-CO-CHA-Gly-Arg-pNA 0.3 mM; 25° C.
T4 construct: human Factor Xa (3 nM); purchased Dr. I. Schousboe, Copenhagen, Denmark
Procedure: The reactions were incubated at 25° C. for ten minutes after which the appropriate chromogenic substrate was added to the final concentration listed in Table 2 and the final reaction was incubated for thirty minutes at 25° C. Amidolytic activity was measured at 405 nm or by fluorescence Em at 460 nm.

[7] = biological target: T5, rec. Protein Ca (activated protein C) (Homo sapiens, UniProt P04070); test: Protease inhibitory activity assay, activated protein C; format: biochemical; conditions: 1 μM inhibitor; rec. Protein Ca 5 nM; <Glu-Pro-Arg-pNA 0.6 mM; 25° C.
T5 construct: purchased Novo Nordisk A/S
Procedure: as §1
r.h. refers to recombinant human, h. refers to human, protein Ca refers t
activated protein C; APPH refers to the KunitzType inhibitor domain of […]

[8] = biological target: T6, rec. human Factor VIIa (Homo sapiens, UniProt P08709); test: Protease inhibitory activity assay, Factor VIIa; format: biochemical; conditions: 1 μM inhibitor; Factor VIIa 300 nM; H-D-Ile-Pro-Arg-pNA 0.6 mM; 25° C.
T6 construct: rec. human Factor VIIa; purchased Novo Nordisk A/S
T6 sequence (P08709 61-212 limits assumed): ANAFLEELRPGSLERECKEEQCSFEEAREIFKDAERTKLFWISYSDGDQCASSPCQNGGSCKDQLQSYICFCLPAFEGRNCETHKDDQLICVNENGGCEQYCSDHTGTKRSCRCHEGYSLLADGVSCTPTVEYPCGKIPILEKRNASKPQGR
T6 sequence (P08709 213-466 limits assumed): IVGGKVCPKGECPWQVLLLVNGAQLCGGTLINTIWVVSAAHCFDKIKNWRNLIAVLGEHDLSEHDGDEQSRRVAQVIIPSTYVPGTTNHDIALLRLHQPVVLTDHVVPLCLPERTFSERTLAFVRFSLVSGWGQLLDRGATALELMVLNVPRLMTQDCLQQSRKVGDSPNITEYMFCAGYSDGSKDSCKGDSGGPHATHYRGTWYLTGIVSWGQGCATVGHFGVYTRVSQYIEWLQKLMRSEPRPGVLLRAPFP
Procedure: H--D--Ile--Pro--Arg--pNA
as §1

[9] = test system: kidneys; conditions: in vivo, repeated injections of relatively high doses; rats, rabbits and dogs; cited from earlier work
[10] = biological target: T7, Leukocyte Elastase (Homo sapiens, UniProt P08246); test: Protease inhibitory activity assay, leukocyte elastase; format: biochemical; conditions: 1 μM inhibitor; MeO-Suc-Ala-Ala-Pro-Val-pNA 0.6 mM; 25° C.
T7 construct: purified at Novo Nordisk A/S; tissue Novo Nordisk A/S (purified there); host or cells: leukocytes
T7 sequence (P08246 30-267): T1 sequence (P08246 30-267)
Procedure: MeO--Suc--Ala--Ala--Pro--Val--pNA
(§5) purified at Novo Nordisk A/S
as §1

[11] = biological target: T8, human Factor XIIa (Homo sapiens, UniProt P00748); test: Protease inhibitory activity assay, Factor XIIa; format: biochemical; conditions: 1 μM inhibitor; Factor XIIa 30 nM; H-D-Pro-Phe-Arg-pNA 0.6 mM; 25° C.
T8 construct: human Factor XIIa (30 nM); purchased Dr. Walt Kisiel, University of New Mexico, Albuquerque, NM
T8 sequence (P00748 20-372 limits assumed): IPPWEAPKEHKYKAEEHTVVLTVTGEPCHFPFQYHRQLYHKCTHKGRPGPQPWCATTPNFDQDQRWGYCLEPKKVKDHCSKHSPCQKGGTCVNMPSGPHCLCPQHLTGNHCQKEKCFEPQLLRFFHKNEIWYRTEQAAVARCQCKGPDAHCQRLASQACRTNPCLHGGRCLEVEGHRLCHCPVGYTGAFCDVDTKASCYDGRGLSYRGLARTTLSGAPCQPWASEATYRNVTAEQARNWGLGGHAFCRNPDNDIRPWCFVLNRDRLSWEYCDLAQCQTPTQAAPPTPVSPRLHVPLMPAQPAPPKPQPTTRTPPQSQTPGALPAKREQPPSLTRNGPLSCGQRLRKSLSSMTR
T8 sequence (P00748 373-615 limits assumed): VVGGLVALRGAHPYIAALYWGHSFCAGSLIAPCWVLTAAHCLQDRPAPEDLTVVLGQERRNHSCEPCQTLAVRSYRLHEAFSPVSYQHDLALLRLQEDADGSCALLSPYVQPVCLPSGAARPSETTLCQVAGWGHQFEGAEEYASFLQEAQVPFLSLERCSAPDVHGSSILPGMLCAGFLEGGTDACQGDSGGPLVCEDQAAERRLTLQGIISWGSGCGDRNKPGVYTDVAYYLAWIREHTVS
Procedure: human Factor XIIa (30 nM)
as §2, §1

[12] = biological target: T9, Cathepsin G (Homo sapiens, UniProt P08311); test: Protease inhibitory activity assay, cathepsin G; format: biochemical; conditions: 1 μM inhibitor; Suc-Ala-Ala-Pro-Phe-pNA 0.6 mM; 25° C.
T9 construct: purified at Novo Nordisk A/S; tissue Novo Nordisk A/S (purified there); host or cells: leukocytes (by the cited method)
T9 sequence (P08311 21-255): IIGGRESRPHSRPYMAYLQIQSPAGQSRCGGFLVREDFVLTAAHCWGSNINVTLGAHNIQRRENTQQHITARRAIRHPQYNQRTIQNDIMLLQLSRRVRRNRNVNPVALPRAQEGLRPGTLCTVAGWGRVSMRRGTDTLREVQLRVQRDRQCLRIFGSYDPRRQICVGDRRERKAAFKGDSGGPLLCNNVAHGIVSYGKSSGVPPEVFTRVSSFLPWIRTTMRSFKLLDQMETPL
Procedure: Cathepsin G Suc--Ala--Ala--Pro--Phe--pNA
as §5
(0.6 mM) (SEQ ID NO: 19)
as §1

[13] = biological target: T10, Urokinase (Homo sapiens, UniProt P00749); test: Protease inhibitory activity assay, urokinase; format: biochemical; conditions: 1 μM inhibitor; urokinase 5 nM; <Glu-Gly-Arg-pNA 0.6 mM; 25° C.
T10 construct: purchased Serono, Freigung, Germany
Procedure: as §1

[14] = biological target: T11, Plasmin (Homo sapiens, UniProt P00747); test: Protease inhibitory activity assay, plasmin; format: biochemical; conditions: 1 μM inhibitor; plasmin 10 nM; H-D-Val-Leu-Lys-pNA 0.6 mM; 25° C.
T11 construct: Plasmin (10 nM); purchased Kabi
Procedure: H--D--Val--Leu--Lys--pNA
as §1

[15] = test system: Trypsin; test: Protease inhibitory activity assay, trypsin; format: biochemical; conditions: 1 μM inhibitor; trypsin 8 nM; H-D-Val-Leu-Lys-pNA 0.6 mM; 25° C.
Procedure: Trypsin (8 nM) H--D--Val--Leu--Lys--pNA
as §1

[16] = biological target: plasma kallikrein (Homo sapiens, UniProt P03952); conditions: WO 89/10374; cited from earlier work
[17] = test system: GL Kallikrein (glandular kallikrein); test: Protease inhibitory activity assay, glandular kallikrein; format: biochemical; conditions: 1 μM inhibitor; GL kallikrein 1 U/ml; H-D-Val-Leu-Arg-pNA 0.6 mM; 25° C.
Procedure: H--D--Val--Leu--Arg--pNA
as §3, §4, §1

[18] = test system: Chymotrypsin; test: Protease inhibitory activity assay, chymotrypsin; format: biochemical; conditions: 1 μM inhibitor; chymotrypsin 2.5 nM; MeO-Suc-Arg-Pro-Tyr-pNA 0.6 mM; 25° C.
Procedure: MeO--Suc--Arg--Pro--Tyr--pNA
as §1

T11 sequence (P00747 97-580 limits assumed): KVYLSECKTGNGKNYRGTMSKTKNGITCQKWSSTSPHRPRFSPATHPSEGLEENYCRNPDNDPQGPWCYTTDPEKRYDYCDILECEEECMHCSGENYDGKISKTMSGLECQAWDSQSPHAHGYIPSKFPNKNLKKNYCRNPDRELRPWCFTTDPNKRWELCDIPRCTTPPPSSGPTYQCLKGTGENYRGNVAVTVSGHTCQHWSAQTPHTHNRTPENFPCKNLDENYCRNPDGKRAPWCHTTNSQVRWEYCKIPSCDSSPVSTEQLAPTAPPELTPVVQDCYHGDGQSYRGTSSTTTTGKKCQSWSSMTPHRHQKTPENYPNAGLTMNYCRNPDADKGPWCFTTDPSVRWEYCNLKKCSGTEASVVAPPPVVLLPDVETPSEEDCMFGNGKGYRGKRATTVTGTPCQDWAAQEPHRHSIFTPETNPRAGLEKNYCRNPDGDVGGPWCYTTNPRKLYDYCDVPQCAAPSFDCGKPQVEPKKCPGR
T11 sequence (P00747 581-810 limits assumed): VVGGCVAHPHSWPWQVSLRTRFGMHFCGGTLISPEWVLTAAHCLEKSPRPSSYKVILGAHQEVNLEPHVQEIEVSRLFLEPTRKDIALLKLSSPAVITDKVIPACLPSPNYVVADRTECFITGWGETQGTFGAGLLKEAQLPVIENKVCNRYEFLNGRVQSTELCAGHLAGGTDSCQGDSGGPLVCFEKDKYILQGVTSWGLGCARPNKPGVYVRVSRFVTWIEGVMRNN
T3 sequence (P03952 20-390 limits assumed): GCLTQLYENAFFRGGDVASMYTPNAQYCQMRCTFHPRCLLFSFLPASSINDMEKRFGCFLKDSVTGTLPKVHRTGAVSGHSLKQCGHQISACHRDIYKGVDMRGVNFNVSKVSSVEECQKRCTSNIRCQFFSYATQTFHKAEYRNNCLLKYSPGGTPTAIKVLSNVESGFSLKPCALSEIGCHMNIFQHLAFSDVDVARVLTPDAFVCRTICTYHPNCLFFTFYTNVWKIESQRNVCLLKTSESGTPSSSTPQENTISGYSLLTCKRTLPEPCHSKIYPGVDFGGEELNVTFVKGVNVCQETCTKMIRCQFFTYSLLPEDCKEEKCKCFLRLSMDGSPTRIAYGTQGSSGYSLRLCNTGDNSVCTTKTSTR
T3 sequence (P03952 391-638 limits assumed): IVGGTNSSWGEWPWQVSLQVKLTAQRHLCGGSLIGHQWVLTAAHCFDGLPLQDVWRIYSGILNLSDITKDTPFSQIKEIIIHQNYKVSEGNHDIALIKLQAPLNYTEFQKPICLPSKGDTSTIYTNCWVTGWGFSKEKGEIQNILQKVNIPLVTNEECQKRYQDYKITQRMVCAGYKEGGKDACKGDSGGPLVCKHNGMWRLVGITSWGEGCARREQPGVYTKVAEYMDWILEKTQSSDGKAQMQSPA
T5 sequence (P04070 43-197 limits assumed): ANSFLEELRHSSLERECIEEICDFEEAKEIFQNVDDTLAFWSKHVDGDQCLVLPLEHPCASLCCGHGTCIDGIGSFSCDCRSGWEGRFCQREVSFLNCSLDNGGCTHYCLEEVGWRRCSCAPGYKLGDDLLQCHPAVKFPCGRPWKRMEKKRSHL
T5 sequence (P04070 212-461 limits assumed): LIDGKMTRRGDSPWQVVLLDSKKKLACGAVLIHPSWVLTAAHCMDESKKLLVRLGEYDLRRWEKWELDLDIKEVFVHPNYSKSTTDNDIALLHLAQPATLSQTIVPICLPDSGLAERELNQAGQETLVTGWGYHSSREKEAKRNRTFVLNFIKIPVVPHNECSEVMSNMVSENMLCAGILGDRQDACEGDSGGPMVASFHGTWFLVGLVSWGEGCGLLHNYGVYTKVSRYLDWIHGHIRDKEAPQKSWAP
Chain of plasma kallikrein (P03952 20-638, species assumed): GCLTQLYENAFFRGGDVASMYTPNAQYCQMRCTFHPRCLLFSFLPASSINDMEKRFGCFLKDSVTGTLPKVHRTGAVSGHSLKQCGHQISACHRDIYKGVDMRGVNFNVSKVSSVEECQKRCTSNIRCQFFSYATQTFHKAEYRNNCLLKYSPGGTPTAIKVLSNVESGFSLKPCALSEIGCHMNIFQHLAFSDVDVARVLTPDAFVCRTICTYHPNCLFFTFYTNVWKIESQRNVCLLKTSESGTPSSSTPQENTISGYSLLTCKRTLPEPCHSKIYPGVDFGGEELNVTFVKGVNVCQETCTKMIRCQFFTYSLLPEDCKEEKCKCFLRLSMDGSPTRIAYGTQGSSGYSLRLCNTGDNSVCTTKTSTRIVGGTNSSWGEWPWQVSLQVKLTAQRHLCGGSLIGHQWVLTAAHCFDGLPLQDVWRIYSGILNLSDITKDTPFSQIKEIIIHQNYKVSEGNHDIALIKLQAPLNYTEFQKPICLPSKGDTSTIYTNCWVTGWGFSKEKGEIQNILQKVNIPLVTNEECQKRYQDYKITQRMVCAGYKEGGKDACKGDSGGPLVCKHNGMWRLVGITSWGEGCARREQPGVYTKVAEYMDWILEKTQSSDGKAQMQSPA
T2 sequence (P03951 19-387 limits assumed): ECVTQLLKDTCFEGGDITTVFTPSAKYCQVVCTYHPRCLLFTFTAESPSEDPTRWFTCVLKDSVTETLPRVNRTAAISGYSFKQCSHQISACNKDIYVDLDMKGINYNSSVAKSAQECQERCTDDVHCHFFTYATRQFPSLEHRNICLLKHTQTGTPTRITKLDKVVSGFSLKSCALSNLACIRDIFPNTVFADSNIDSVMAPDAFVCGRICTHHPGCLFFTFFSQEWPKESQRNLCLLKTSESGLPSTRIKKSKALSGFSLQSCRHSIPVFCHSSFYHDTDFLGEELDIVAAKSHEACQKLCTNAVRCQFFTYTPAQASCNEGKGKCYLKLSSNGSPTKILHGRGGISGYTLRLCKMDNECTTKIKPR
T2 sequence (P03951 388-625 limits assumed): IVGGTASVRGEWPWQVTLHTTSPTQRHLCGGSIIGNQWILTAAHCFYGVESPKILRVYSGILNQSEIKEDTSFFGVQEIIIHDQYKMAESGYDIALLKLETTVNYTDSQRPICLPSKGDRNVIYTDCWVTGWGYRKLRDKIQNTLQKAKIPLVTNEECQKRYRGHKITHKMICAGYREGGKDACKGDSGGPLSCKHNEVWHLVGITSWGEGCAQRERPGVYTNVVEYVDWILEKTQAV
T4 sequence (P00742 41-179 limits assumed): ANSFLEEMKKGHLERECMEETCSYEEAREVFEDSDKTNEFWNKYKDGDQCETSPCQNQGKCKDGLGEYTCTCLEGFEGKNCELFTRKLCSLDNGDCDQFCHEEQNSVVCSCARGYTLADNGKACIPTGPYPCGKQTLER
T4 sequence (P00742 235-488 limits assumed): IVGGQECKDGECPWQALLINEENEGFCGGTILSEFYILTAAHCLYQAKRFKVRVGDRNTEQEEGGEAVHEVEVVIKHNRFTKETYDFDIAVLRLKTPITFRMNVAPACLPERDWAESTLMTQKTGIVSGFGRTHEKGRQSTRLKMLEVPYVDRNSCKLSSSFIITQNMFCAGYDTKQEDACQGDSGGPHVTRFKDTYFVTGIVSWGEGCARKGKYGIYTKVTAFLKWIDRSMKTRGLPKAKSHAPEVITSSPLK

aprotinin (1-58, Val15)
inhibitory effect on collagenase [1]: inhibitory effect
selectivity for granulocyte elastase ([2]; Wenzel and Tschesche 1981): relatively high selectivity

aprotinin [BPTI]
% Inhibition, h. Factor XIa [3]: 59%
blood loss in connection with cardiac surgery [4]: significantly reduces blood loss
% Inhibition, PL Kallikrein [5]: 83%
% Inhibition, h. Factor Xa [6]: 1%
% Inhibition, r.h. Protein Ca [7]: 38%
% Inhibition, r.h. Factor VIIa [8]: 1%
nephrotoxic effect [9]: nephrotoxic effect
% Inhibition, Leukocyte Elastase [10]: 1%
% Inhibition, h. Factor XIIa [11]: 2%
% Inhibition, Cathepsin G [12]: 4%
% Inhibition, Urokinase [13]: 1%
% Inhibition, Plasmin [14]: 100%
% Inhibition, Trypsin [15]: 100%

aprotinin (3-58, Arg15, Ala17, Ser42)
plasma kallikrein inhibitory effect [16]: excellent

APP: amyloid protein precursor Kunitz-type inhibitor domain (Example 2E, SEQ ID NO:17), expressed in yeast (EVCSEQAETGPCRAMISRWYFDVTEGKCAPFFYGGCGGNRNNFDTEEYCMAVCGSA)
% Inhibition, PL Kallikrein [5]: 71%
% Inhibition, GI Kallikrein [17]: 82%
% Inhibition, Leukocyte Elastase [10]: 6%
% Inhibition, Cathepsin G [12]: 16%
% Inhibition, Urokinase [13]: 0%
% Inhibition, Chymotrypsin [18]: 94%
% Inhibition, Plasmin [14]: 90%
% Inhibition, Trypsin [15]: 99.7%

Aprotinin (1-58, Ala15)
effect on elastase ([2]; literature): weak effect
